Test results published in ChEMBL document CHEMBL3044631, “Synthesis of 2-[4,5-dimethyl-1-(phenylamino)-1H-imidazol-2-ylthio]-N-(thiazole-2-yl)acetamide derivatives and their anticancer activities” (2013).

Experiments:
Format in all cases: functional
[1] = system: CCRF-CEM; test: Anticancer activity against Homo sapiens (human) CCRF-CEM cells assessed as cell growth promotion at 10 uM after 48 hr by SRB assay
[2] = system: SW-620; test: Anticancer activity against Homo sapiens (human) SW620 cells after 48 hr by SRB assay; conditions: SW-620, 48 h
[3] = system: HCT-15; test: Anticancer activity against Homo sapiens (human) HCT15 cells after 48 hr by SRB assay; conditions: HCT-15, 48 h
[4] = system: NCI-H522; test: Anticancer activity against Homo sapiens (human) NCI-H522 cells after 48 hr by SRB assay; conditions: NCI-H522, 48 h
[5] = system: NCI-H322M; test: Anticancer activity against Homo sapiens (human) NCI-H322M cells after 48 hr by SRB assay
[6] = system: EKVX; test: Anticancer activity against Homo sapiens (human) EKVX cells after 48 hr by SRB assay
[7] = system: HOP-62; test: Anticancer activity against Homo sapiens (human) HOP62 cells after 48 hr by SRB assay; conditions: HOP-62, 48 h
[8] = system: A549; test: Anticancer activity against Homo sapiens (human) A549/ATCC cells after 48 hr by SRB assay; conditions: A549, 48 h
[9] = system: MOLT-4; test: Anticancer activity against Homo sapiens (human) MOLT4 cells after 48 hr by SRB assay; conditions: MOLT-4, 48 h
[10] = system: HL-60(TB); test: Anticancer activity against Homo sapiens (human) HL-60(TB) cells after 48 hr by SRB assay; conditions: HL-60, 48 h
[11] = system: NCI-H460; test: Anticancer activity against Homo sapiens (human) NCI-H460 cells after 48 hr by SRB assay; conditions: NCI-H460, 48 h
[12] = system: MDA-MB-468; test: Anticancer activity against Homo sapiens (human) MDA-MB-468 cells after 48 hr by SRB assay; conditions: MDA-MB-468, 48 h
[13] = system: BT-549; test: Anticancer activity against Homo sapiens (human) BT549 cells after 48 hr by SRB assay; conditions: BT-549, 48 h
[14] = system: Hs-578T; test: Anticancer activity against Homo sapiens (human) Hs 578T cells after 48 hr by SRB assay
[15] = system: MDA-MB-231; test: Anticancer activity against Homo sapiens (human) MDA-MB-231/ATCC cells after 48 hr by SRB assay; conditions: MDA-MB-231, 48 h
[16] = system: DU-145; test: Anticancer activity against Homo sapiens (human) DU145 cells after 48 hr by SRB assay; conditions: DU-145, 48 h
[17] = system: SK-OV-3; test: Anticancer activity against Homo sapiens (human) SKOV3 cells after 48 hr by SRB assay; conditions: SK-OV-3, 48 h
[18] = system: OVCAR-8; test: Anticancer activity against Homo sapiens (human) OVCAR8 cells after 48 hr by SRB assay; conditions: OVCAR-8, 48 h
[19] = system: OVCAR-5; test: Anticancer activity against Homo sapiens (human) OVCAR5 cells after 48 hr by SRB assay; conditions: OVCAR-5, 48 h
[20] = system: OVCAR-4; test: Anticancer activity against Homo sapiens (human) OVCAR4 cells after 48 hr by SRB assay; conditions: OVCAR-4, 48 h
[21] = system: UACC-62; test: Anticancer activity against Homo sapiens (human) UACC62 cells after 48 hr by SRB assay; conditions: UACC-62, 48 h
[22] = system: SK-MEL-5; test: Anticancer activity against Homo sapiens (human) SK-MEL-5 cells after 48 hr by SRB assay; conditions: SK-MEL-5, 48 h
[23] = system: MDA-MB-435; test: Anticancer activity against Homo sapiens (human) MDA-MB-435 cells after 48 hr by SRB assay; conditions: MDA-MB-435, 48 h
[24] = system: LOX IMVI; test: Anticancer activity against Homo sapiens (human) LOXIMVI cells after 48 hr by SRB assay
[25] = system: U-251; test: Anticancer activity against Homo sapiens (human) U251 cells after 48 hr by SRB assay; conditions: U-251, 48 h
[26] = system: UO-31; test: Anticancer activity against Homo sapiens (human) UO31 cells after 48 hr by SRB assay; conditions: UO-31, 48 h
[27] = system: TK-10; test: Anticancer activity against Homo sapiens (human) TK10 cells after 48 hr by SRB assay; conditions: TK-10, 48 h
[28] = system: SN12C; test: Anticancer activity against Homo sapiens (human) SN12C cells after 48 hr by SRB assay
[29] = system: CAKI-1; test: Anticancer activity against Homo sapiens (human) CAKI-1 cells after 48 hr by SRB assay; conditions: CAKI-1, 48 h
[30] = system: ACHN; test: Anticancer activity against Homo sapiens (human) ACHN cells after 48 hr by SRB assay
[31] = system: A498; test: Anticancer activity against Homo sapiens (human) A498 cells after 48 hr by SRB assay; conditions: A498, 48 h
[32] = read-out: LC50 (the source's name)

With CCOC(=O)c1csc(NC(=O)CSc2nc(C)c(C)n2Nc2ccc(C)cc2)n1 the Activity [1] was 24.68%.
For Cc1nc(SCC(=O)Nc2nc(-c3ccc(Cl)cc3)cs2)n(Nc2ccccc2)c1C, the GI50 [2] was 5.5 µM, the LC50 (concentration killing 50% of cells) [2] was 74.6 µM and the TGI [2] was 22.9 µM. The GI50 [3] was 5.74 µM, the TGI [3] was 23.3 µM and the CC50 [3, 32] was 76.9 µM. The GI50 [4] was 2.54 µM, the LC50 (50% lethal concentration) [4] was 66.5 µM and the TGI [4] was 13.7 µM. The GI50 [5] was 4.17 µM, the TGI [5] was 22.9 µM and the CC50 [5, 32] was > 100 µM. For the same molecule, the GI50 [6] was 1.84 µM, the TGI [6] was 12.2 µM and the CC50 [6, 32] was 94.1 µM. It also gave a GI50 [7] of 3.06 µM, an LC50 [7] of 31.7 µM and a TGI [7] of 9.63 µM. For the same molecule, the GI50 [8] was 2.9 µM, the LC50 [8] was 40.1 µM and the TGI [8] was 11.6 µM. For the same molecule, the GI50 [9] was 2.51 µM, the LC50 (50% lethal concentration) [9] was > 100 µM and the TGI [9] was 9.94 µM. The GI50 [10] was 2.99 µM, the TGI [10] was > 100 µM and the CC50 [10, 32] was > 100 µM. The GI50 [11] was 2.89 µM, the LC50 [11] was 82.1 µM and the TGI [11] was 11 µM. For the same molecule, the GI50 [12] was 1.45 µM, the LC50 [12] was 40.4 µM and the TGI [12] was 6.27 µM. It also gave a GI50 [13] of 7.02 µM, an LC50 [13] of 51.8 µM and a TGI [13] of 20.9 µM. The GI50 [14] was 3.42 µM, the TGI [14] was 21.6 µM and the CC50 [14, 32] was > 100 µM. It also gave a GI50 [15] of 3.01 µM, a TGI [15] of 15.2 µM and a CC50 [15, 32] of 57.8 µM. For the same molecule, the GI50 [16] was 5.64 µM, the LC50 (concentration killing 50% of cells) [16] was 45.4 µM and the TGI [16] was 18.7 µM. It also gave a GI50 [17] of 5.91 µM, an LC50 (50% lethal concentration) [17] of 47.4 µM and a TGI [17] of 19.8 µM. It also gave a GI50 [18] of 2.71 µM, a TGI [18] of 7.73 µM and a CC50 [18, 32] of 38.9 µM. The GI50 [19] was 2.65 µM, the LC50 [19] was 54.2 µM and the TGI [19] was 13.5 µM. The GI50 [20] was 4.6 µM, the LC50 (concentration killing 50% of starting cells) [20] was > 100 µM and the TGI [20] was 22.1 µM. It also gave a GI50 [21] of 3.09 µM, an LC50 [21] of 50.3 µM and a TGI [21] of 16.1 µM. For the same molecule, the GI50 [22] was 2.24 µM, the LC50 (concentration killing 50% of cells) [22] was 25.8 µM and the TGI [22] was 6.31 µM. For the same molecule, the GI50 [23] was 3.25 µM, the LC50 (concentration killing 50% of cells) [23] was > 100 µM and the TGI [23] was 21.8 µM. The GI50 [24] was 1.78 µM, the LC50 (50% lethal concentration) [24] was 7.79 µM and the TGI [24] was 3.72 µM. For the same molecule, the GI50 [25] was 3.13 µM, the LC50 (lethal concentration, 50% net cell kill) [25] was 41.4 µM and the TGI [25] was 13 µM. The GI50 [26] was 3.59 µM, the TGI [26] was 37.7 µM and the CC50 [26, 32] was > 100 µM. For the same molecule, the GI50 [27] was 3.65 µM, the LC50 (50% lethal concentration) [27] was 40.7 µM and the TGI [27] was 13.8 µM. The GI50 [28] was 2.38 µM, the LC50 (concentration killing 50% of cells) [28] was 35.8 µM and the TGI [28] was 10.1 µM. The GI50 [29] was 3.93 µM, the LC50 (concentration killing 50% of cells) [29] was > 100 µM and the TGI [29] was 22.6 µM. It also gave a GI50 [30] of 3.67 µM, an LC50 (concentration killing 50% of cells) [30] of 51.5 µM and a TGI [30] of 14.1 µM. For the same molecule, the GI50 [31] was 2.24 µM, the LC50 [31] was 35.8 µM and the TGI [31] was 10.5 µM.
Work on Cc1nc(SCC(=O)Nc2nccs2)n(Nc2ccccc2)c1C yielded an Activity [1] of 102.19%.
